Measured values from ChEMBL document CHEMBL1201862, “PubChem BioAssay data set” (2004).
The source made the active and inactive calls.

Experiments:
Beta-galactosidase = Beta-galactosidase (Escherichia coli, UniProt Q8VNN2); test: PubChem AID 485352; assay type: functional
[1] = biological target: Type-1 angiotensin II receptor (Homo sapiens, UniProt P30556); test: AT1 receptor antagonists, dose response, selectivity assay for APJ receptor antagonist project, cell-based, uHTS hits (AID 463214); assay type: functional;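 note: antagonist potency against angiotensin II stimulated AT1 response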
[2] = biological target: T1, Serine/threonine-protein phosphatase (Candida dubliniensis (strain CD36 / CBS 7987 / NCPF 3949 / NRRLY-17841) (Yeast), UniProt B9W6M3); test: calcineurin pathway inhibitors in yeast reporter, dose response, S. cerevisiae, CDRE-lacZ, luminescence, secondary (AID 2388); assay type: functional, cell-based;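 note: yeast reporter cells carrying a calcineurin-responsive lacZ construct stimulated with calcium chloride; luminescent beta-galactosidase reporter signal in whole cells rather than isolated phosphatase activity; potency for inhibition where a drop in reporter signal means calcineurin blockade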
T1 sequence (B9W6M3 whole entry): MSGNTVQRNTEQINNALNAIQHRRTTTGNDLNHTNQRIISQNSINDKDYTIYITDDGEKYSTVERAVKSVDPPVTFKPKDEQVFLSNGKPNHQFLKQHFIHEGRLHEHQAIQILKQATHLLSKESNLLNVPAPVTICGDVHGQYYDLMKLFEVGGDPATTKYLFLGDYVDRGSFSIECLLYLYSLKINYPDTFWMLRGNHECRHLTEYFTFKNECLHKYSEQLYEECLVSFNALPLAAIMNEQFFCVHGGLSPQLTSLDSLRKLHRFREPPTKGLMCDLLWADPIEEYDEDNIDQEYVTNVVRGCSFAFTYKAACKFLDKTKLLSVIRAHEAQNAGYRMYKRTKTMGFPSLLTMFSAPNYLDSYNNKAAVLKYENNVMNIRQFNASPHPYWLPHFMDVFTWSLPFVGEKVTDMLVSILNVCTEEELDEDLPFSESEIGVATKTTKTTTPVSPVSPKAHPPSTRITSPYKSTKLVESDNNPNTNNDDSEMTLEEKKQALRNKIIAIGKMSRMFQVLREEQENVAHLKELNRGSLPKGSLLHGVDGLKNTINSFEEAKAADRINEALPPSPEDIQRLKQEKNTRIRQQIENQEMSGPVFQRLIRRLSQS

[3] = biological target: T2, High affinity choline transporter 1 (Homo sapiens, UniProt Q9GZV3); test: CHT inhibitors, dose response, cell-based, 5-point CRC, membrane potential dye (AID 504840); assay type: functional
T2 sequence (Q9GZV3 whole entry): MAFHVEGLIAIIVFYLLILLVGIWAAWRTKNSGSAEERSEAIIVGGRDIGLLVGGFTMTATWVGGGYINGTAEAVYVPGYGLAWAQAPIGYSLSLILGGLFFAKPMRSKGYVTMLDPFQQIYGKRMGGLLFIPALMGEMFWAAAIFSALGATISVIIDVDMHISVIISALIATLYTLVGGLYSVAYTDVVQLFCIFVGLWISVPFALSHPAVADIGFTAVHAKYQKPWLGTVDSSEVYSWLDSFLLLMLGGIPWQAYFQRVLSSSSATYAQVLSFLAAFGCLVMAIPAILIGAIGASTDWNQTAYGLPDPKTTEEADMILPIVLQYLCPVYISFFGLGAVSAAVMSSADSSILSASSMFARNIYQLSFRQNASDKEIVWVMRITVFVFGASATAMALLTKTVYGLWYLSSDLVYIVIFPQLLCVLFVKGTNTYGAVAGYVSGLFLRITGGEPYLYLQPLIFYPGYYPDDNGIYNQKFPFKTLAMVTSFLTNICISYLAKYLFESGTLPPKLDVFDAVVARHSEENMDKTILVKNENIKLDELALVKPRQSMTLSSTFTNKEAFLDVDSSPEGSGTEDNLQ

[4] = biological target: ATP-dependent molecular chaperone HSP82 (Candida albicans (strain WO-1) (Yeast), UniProt C4YTQ8); test: loss of DOC-induced GRE-beta-galactosidase reporter signal, dose response, Hsp90 inhibitor project, S. cerevisiae, luminescence (AID 2400); assay type: functional, cell-based;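 note: beta-galactosidase luminescence from glucocorticoid response element reporter as proxy for Hsp90 function; inhibitor potency where signal loss means Hsp90 inhibition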
[5] = C. albicans growth with fluconazole, confirmation, fluorescence, retest (AID 2467); assay type: functional, cell-based
[6] = Luminescence Cell-Based Dose Response HTS to Identify Inhibitors of 5'UTR Stem-Loop Driven Prion Protein mRNA Translation in H4 Neuroglioblastoma Cells. [Related pubchem assays: 1827 (Project Summary), 1813 (Primary HTS)]; assay type: functional
[7] = inhibitors of firefly luciferase expression or activity, dose response, H4 neuroglioma cells, luminescence (AID 1990); assay type: functional, cell-based
[8] = NIH-3T3 fibroblast cytotoxicity, dose response, cytotoxicity control, cell-based, fluorescence, Alamar Blue, secondary assay (AID 2327); assay type: functional;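 note: NIH-3T3 mouse fibroblasts cultured with fluconazole at 8 µg/mL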
[9] = inhibitors of SNCA 5'UTR-driven reporter translation, confirmation, H4 neuroglioma cells, luminescence (AID 1988); assay type: functional, cell-based
[10] = biological target: T3, Sentrin-specific protease 6 (Homo sapiens, UniProt Q9GZR1); assay type: functional
T3 sequence (Q9GZR1 whole entry): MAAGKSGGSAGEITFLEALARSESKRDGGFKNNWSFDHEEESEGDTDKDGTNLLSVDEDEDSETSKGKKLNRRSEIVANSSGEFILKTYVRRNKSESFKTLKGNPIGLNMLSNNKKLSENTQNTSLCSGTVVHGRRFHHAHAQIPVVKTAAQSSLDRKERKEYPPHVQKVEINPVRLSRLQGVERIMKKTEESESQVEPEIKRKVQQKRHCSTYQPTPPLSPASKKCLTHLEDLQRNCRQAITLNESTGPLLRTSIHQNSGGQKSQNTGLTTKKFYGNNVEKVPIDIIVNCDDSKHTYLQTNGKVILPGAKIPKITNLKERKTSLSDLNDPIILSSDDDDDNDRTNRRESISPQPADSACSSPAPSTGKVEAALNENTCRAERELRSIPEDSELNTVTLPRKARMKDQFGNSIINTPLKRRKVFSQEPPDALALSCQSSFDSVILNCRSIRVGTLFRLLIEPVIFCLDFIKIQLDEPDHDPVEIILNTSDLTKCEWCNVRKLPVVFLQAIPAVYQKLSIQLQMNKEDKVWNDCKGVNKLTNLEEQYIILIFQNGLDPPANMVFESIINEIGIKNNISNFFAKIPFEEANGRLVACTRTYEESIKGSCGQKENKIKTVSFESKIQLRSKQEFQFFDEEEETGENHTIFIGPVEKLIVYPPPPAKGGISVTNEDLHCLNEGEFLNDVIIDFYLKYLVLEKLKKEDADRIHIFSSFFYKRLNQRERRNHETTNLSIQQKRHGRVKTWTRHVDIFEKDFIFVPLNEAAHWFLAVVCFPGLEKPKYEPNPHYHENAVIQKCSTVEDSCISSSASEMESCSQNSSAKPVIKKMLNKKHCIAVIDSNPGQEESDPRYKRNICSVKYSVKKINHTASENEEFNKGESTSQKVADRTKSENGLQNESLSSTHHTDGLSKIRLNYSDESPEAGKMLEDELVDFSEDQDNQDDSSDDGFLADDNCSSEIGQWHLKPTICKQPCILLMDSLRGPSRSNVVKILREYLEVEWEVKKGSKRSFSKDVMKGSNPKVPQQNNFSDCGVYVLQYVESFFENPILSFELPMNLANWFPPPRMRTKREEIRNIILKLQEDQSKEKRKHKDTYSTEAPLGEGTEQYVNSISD

[11] = biological target: T4, Sentrin-specific protease 8 (Homo sapiens, UniProt Q96LD8); assay type: functional;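 note: luminescence read-out of SENP8 inhibition, dose-response confirmation following an ultra-high-throughput screen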
T4 sequence (Q96LD8 whole entry): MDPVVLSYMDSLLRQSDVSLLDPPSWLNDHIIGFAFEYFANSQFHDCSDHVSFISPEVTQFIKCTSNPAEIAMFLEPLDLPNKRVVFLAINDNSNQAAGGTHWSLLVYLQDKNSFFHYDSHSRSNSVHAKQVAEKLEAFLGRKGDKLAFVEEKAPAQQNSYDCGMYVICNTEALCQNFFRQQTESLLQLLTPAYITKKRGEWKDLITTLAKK

[12] = biological target: T3, Sentrin-specific protease 6; test: SAR Analysis of small molecule inhibitors of Sentrin-specific protease 6 (SENP6) using a Luminescent assay. [Related pubchem assays (depositor defined):AID2582, AID2599]; assay type: functional
[13] = biological target: T4, Sentrin-specific protease 8; test: SENP8 protease inhibitors, SAR follow-up, biochemical, luminescence (AID 504501); assay type: functional
[14] = biological target: T5, Sentrin-specific protease 7 (Homo sapiens, UniProt Q9BQF6); test: SENP7 protease inhibitors, SAR follow-up, biochemical, luminescence (AID 504497); assay type: functional
T5 sequence (Q9BQF6 whole entry): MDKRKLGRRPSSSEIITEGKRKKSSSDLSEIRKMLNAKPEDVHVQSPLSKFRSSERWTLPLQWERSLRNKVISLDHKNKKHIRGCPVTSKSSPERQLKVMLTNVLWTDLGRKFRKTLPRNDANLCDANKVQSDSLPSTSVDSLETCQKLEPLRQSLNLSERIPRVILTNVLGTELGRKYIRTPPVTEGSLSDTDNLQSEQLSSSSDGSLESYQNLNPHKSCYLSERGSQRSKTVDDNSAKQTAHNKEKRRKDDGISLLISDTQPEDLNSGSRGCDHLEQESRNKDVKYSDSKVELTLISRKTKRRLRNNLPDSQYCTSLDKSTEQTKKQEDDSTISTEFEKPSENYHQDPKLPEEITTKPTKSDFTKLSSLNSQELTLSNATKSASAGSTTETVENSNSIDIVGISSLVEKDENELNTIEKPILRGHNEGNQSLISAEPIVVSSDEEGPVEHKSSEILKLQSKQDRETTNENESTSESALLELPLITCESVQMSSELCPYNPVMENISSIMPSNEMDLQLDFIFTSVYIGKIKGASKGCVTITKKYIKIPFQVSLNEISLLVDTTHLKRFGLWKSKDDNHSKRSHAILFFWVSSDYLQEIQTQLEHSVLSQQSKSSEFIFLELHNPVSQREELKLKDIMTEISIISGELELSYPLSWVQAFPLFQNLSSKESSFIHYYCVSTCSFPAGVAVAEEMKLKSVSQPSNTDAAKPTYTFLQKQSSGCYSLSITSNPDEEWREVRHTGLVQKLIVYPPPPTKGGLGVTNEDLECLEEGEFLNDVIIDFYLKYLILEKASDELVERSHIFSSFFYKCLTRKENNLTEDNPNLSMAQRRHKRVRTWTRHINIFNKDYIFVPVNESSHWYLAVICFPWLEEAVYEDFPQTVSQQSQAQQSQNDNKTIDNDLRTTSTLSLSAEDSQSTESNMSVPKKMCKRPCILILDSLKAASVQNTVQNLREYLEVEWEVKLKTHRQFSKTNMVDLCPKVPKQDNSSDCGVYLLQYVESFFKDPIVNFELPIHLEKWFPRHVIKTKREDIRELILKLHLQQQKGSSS

[15] = biological target: T5, Sentrin-specific protease 7; assay type: functional
[16] = biological target: Voltage-dependent T-type calcium channel subunit alpha-1H (Homo sapiens, UniProt O95180); assay type: functional;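 note: channel activity triggered by adding a high calcium stimulation buffer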
Caspase-3 [17] = biological target: T6, Caspase-3 (Homo sapiens, UniProt P42574); test: SAR Analysis of small molecule inhibitors of Sentrin-specific proteases (SENPs) using a Caspase-3 Selectivity assay. [Related pubchem assays (depositor defined):AID2540, AID2599, AID434973, AID489001]; assay type: functional
T6 sequence (P42574 whole entry): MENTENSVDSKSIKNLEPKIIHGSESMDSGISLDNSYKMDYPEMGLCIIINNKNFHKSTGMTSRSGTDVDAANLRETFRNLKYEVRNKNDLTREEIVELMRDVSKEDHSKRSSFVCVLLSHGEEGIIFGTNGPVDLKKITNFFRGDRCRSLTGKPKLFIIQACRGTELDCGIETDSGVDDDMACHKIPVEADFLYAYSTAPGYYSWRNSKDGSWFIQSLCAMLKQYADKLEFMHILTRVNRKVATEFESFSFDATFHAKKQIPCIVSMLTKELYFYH

Caspase-3 [18] = biological target: T6, Caspase-3; assay type: functional
[19] = HepG2 cell cytotoxicity, dose response, cytotoxicity control for non-replicating M. tuberculosis project (AID 489018); assay type: functional; conditions: Mycobacterium tuberculosis
Streptococcus = test: Group A Streptococcus viability loss, dose response, counter-screen for streptokinase expression inhibitor project, luminescence, BacTiterGlo (AID 1915); assay type: functional, organism-based;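 note: potency for reduction of bacterial viability or growth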
[20] = system: Streptococcus sp. 'group A'; test: growth inhibition of control SK(-) GAS strain, dose response, counter-screen for streptokinase expression inhibitor project, luminescence, kanamycin, BacTiterGlo, confirmation (AID 1900); assay type: functional, organism-based
[21] = Vero E6 cell cytotoxicity, dose response, cytotoxicity control for non-replicating M. tuberculosis project, secondary assay (AID 492998); assay type: functional, VeroE6; conditions: Vero C1008
[22] = THP-1 cell cytotoxicity, dose response, cytotoxicity control for non-replicating M. tuberculosis project (AID 489025); assay type: functional
cells = assay type: functional

Sequence of ATP-dependent molecular chaperone HSP82 (C4YTQ8 whole entry): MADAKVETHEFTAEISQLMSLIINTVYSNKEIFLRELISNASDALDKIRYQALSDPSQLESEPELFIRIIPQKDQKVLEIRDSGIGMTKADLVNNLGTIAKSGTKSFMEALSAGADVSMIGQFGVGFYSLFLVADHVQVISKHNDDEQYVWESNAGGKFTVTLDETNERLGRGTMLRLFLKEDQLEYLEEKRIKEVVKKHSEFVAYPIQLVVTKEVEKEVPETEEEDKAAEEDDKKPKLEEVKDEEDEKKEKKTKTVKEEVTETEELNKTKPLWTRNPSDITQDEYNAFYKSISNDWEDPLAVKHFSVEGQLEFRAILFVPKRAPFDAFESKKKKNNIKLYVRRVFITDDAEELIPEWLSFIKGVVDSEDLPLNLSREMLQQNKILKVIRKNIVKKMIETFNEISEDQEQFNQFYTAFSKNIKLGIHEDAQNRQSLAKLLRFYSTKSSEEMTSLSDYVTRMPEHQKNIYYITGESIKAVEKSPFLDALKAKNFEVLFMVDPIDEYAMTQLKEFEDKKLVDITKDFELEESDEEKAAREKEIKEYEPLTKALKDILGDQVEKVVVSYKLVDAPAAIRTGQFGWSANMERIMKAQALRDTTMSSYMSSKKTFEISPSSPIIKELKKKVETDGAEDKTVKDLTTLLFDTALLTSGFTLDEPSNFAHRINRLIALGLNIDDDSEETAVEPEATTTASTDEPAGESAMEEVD
Sequence of Voltage-dependent T-type calcium channel subunit alpha-1H (O95180 whole entry): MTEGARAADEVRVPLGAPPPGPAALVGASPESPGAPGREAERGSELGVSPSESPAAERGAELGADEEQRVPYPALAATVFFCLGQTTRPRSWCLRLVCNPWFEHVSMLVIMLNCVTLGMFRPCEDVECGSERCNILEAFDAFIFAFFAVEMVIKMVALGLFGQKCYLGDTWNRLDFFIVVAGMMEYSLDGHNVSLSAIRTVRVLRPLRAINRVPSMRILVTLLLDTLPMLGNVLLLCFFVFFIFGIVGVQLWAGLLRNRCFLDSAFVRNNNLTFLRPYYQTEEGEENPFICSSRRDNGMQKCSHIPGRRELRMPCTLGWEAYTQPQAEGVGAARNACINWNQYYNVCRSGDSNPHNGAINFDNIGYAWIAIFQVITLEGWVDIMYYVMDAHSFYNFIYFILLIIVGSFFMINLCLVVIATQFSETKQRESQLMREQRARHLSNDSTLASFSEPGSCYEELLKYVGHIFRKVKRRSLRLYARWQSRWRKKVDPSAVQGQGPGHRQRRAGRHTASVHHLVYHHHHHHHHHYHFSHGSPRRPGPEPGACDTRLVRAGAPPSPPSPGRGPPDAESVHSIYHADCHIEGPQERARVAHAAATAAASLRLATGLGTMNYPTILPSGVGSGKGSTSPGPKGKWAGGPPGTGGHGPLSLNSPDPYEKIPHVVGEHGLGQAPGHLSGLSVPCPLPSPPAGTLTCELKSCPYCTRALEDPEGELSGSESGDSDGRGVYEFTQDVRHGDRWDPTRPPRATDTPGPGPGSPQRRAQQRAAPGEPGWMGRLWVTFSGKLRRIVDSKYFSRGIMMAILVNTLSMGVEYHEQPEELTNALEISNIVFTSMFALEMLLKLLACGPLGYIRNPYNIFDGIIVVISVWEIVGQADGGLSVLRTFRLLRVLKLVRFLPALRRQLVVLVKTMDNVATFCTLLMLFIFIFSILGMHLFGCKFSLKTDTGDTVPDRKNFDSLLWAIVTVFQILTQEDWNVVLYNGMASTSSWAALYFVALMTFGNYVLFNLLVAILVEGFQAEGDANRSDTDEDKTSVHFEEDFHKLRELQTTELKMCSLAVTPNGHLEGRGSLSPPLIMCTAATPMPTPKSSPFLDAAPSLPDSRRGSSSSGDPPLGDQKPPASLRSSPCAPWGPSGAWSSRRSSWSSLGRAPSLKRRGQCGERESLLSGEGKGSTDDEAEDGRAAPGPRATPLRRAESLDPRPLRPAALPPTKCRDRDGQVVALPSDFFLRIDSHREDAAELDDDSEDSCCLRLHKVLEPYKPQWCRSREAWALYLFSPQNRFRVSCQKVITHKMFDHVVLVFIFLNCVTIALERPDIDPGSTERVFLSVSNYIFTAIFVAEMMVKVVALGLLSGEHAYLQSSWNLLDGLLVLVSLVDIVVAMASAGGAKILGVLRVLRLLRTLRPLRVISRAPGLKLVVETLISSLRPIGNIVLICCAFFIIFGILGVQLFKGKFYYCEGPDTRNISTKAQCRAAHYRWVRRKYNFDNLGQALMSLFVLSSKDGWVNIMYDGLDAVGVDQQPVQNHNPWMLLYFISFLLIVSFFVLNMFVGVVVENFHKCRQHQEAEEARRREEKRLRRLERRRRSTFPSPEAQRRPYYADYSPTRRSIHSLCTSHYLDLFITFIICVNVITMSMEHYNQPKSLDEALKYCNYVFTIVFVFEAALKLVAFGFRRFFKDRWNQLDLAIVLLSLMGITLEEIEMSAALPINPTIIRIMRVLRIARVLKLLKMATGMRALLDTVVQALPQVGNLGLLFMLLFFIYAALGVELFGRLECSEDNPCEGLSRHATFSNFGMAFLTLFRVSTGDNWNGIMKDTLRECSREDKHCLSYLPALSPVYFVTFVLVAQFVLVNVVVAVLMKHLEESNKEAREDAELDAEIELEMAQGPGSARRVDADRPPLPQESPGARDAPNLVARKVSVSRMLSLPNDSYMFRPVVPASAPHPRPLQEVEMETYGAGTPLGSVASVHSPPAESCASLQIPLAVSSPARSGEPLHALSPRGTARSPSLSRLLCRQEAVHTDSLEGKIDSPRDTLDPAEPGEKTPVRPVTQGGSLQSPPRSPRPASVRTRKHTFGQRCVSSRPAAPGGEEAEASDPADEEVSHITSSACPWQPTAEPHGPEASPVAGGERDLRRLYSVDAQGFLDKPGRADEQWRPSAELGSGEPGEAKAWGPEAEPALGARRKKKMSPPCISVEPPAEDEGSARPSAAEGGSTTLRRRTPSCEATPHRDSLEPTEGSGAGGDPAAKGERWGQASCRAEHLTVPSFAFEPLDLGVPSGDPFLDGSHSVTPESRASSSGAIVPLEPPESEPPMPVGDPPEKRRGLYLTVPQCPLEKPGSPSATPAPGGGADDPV
Sequence of Type-1 angiotensin II receptor (P30556 whole entry): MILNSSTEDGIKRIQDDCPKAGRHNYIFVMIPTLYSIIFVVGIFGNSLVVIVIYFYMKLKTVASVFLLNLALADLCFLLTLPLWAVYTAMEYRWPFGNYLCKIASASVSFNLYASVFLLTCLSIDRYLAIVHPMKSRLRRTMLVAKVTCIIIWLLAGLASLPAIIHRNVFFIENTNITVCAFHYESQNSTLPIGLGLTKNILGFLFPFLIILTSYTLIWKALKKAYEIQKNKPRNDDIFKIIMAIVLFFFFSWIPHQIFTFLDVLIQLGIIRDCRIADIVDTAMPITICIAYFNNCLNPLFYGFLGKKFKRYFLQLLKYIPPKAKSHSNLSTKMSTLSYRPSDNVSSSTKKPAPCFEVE
Sequence of Beta-galactosidase (Q8VNN2 whole entry): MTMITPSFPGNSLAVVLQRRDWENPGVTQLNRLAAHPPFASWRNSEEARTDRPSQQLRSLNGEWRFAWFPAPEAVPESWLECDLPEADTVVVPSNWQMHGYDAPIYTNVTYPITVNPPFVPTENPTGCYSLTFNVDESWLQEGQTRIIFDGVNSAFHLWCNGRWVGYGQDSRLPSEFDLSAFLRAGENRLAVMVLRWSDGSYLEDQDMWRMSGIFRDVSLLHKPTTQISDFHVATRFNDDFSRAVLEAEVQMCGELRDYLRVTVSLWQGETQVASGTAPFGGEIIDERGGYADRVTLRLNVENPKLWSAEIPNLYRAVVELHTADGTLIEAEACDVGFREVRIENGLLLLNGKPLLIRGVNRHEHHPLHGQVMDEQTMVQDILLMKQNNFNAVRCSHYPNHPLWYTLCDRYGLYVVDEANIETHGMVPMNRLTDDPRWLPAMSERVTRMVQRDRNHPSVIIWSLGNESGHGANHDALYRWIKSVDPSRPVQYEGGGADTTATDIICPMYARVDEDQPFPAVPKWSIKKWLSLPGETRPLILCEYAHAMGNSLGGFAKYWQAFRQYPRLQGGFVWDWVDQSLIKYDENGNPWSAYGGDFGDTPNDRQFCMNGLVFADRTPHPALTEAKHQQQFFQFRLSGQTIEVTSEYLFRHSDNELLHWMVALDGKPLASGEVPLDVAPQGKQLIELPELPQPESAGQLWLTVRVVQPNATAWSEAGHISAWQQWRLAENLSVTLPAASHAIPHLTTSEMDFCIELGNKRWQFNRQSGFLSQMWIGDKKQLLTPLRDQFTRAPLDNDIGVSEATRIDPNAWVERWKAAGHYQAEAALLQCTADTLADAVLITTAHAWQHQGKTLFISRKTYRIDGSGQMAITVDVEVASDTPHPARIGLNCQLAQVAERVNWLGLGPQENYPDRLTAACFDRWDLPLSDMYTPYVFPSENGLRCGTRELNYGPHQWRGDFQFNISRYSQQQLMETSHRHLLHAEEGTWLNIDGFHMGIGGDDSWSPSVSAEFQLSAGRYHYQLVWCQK

SMILES: O=C(NNc1ncc(C(F)(F)F)cc1Cl)c1c(Cl)cccc1Cl
- EC50 (Beta-galactosidase): > 40 µM (inactive)
- IC50 [1]: > 40 µM (not active)

SMILES: Cc1ccccc1C(=O)O/N=C/c1c(N2CCOCC2)n(C)c2ccccc12
- EC50 [2]: > 180 µM (inactive)
- IC50 [3]: 21.6 µM (active)
- EC50 [4]: 23.7 µM (active)
- EC50 [5]: 212 nM (active)
- EC50 [6]: 11.8 µM (active)
- EC50 [7]: 455 nM (active)
- EC50 [8]: > 160 µM (inactive)
- EC50 [9]: 4.88 µM (active)

SMILES: Cc1ccc2nc(-c3cccnc3SCC(=O)N3c4ccccc4CC3C)[nH]c2c1 (centres undefined)
- IC50 [10]: > 100 µM (inactive)
- IC50 [11]: 1.56 µM (active)
- IC50 [12]: 5.76 µM (active)
- IC50 [13]: 6.28 µM (active)
- IC50 [14]: 5.66 µM (active)
- IC50 [15]: 2.9 µM (active)
- EC50 [16]: 11.2 µM (active)
- IC50 (Caspase-3 [17]): 5.3 µM (active)
- IC50 (Caspase-3 [18]): 4.22 µM (active)

SMILES: O=C(Nc1nnc(C2COc3ccccc3O2)o1)c1ccc(F)cc1 (centres undefined)
- EC50 [2]: > 180 µM (inactive)
- EC50 [4]: > 150 µM (inactive)
- CC50 [19]: 19.9 µM (active)
- EC50 (Streptococcus): 11.4 µM (active)
- EC50 [5]: 968 nM (active)
- EC50 [20]: 980 nM (active)
- CC50 [21]: 11.4 µM (active)
- EC50 [8]: 25.4 µM (inconclusive)
- CC50 [22]: 15.7 µM (active)
- IC50 (cells): 1.49 µM (active)
